We go through 1 molecule from BindingDB's records for doi:10.1021/acs.jmedchem.6b01194 (University of Illinois At Chicago, 2016).

The structures appear in SMILES notation.

The target of the assay is 5-hydroxytryptamine receptor 2B (Homo sapiens, UniProt P41595). The experiment in a line: Agonist activity at human 5-HT2B receptor expressed in human Flp-In-293 cells assessed as induction of calcium flux incubated for 1 hr by Fluo-4 direct dye based FLIPR assay. In general terms: A change in cytosolic calcium serves as a functional read-out for many receptors and channels.
Chain of 5-hydroxytryptamine receptor 2B (P41595 whole entry): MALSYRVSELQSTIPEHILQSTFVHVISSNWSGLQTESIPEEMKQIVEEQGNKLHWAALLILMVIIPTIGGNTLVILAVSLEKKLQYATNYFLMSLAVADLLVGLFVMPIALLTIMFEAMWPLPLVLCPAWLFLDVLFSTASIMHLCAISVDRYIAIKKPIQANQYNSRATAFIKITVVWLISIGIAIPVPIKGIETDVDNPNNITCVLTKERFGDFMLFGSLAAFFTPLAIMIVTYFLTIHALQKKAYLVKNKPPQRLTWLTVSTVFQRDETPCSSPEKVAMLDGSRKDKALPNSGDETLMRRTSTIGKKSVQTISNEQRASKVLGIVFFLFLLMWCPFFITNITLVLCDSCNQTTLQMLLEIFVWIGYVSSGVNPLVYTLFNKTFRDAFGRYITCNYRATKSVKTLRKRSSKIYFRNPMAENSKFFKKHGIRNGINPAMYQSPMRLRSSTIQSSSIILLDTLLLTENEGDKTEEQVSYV

Broadly, the EC50 is the concentration that produces a half-maximal response. For the molecule `NC[C@H]1C[C@@H]1c1c(OCC2CC2)ccc2occc12`, the EC50 amounted to 339 nM.
